Experimental data reported in patent publication US20130165368A1, “ANTIMICROBIAL COMPOUNDS” (priority 2010, published 2013).
In brackets after ≈: the same amount, converted by molar mass. Read-outs that look alike come from different tables or passages of the source.

Assays:
Format in all cases: cell-based
Escherichia coli = assay: MIC agar dilution, micro-organism 1 (10418); settings: Escherichia coli 10418, read-out: MIC
Experimental: (§1) Throughout the period of testing the microbial strains were subcultured and incubated for 18-20 hours at 37° C. on a weekly basis. Horse blood agar plates were used to sustain the micro-organisms both prior to and throughout testing. The alkoxylated alkanols listed in Table II below were obtained (these are obtainable from Sigma-Aldrich Company Ltd, Dorset, England), each having a GC purity of at least 97%.
(§2) Molar equivalent concentrations were used to allow comparison between compounds of differing molecular mass. Due to weighing difficulties, any compound in solid form was melted in a water bath prior to dilution. To make ten-times strength concentrations, which takes into account agar dilution, 0.0352 mmol of each compound was weighed into plastic universal bottles and 4 mL of sterile distilled water (SDW) was added. To produce a homogenous emulsion the universals were vortexed; once achieved the emulsions were serial diluted by adding 2 mL to 2 mL of SDW.
(§3) Myristyl alcohol and lauryl alcohol were re-weighed and dissolved in 25 μL of the polar solvent 1-methyl-2-pyrrolidone (M6762; Sigma-Aldrich) in sterile glass universals due to an inability to achieve an even suspension. To maintain an even emulsion in the presence of SDW 37.5 μL of the non-ionic detergent Tween 20 (P1379, Sigma-Aldrich) was also added. 3.9375 mL of SDW was added to these, to create a 4 mL volume; they were vortexed and diluted as before.
(§4) For every 100 mL of Isosensitest agar (IST) (CM0471; Oxoid, Basingstoke, England), 3.1 g of the IST powder was added to 100 mL SDW (as per manufacturer's instructions) and sterilised for 15 minutes at 121° C. Once sterilised, the molten agar was cooled to 50° C. in a water-bath. Subsequently 4.8 g of CCEY powder (BC2160; Bioconnections, Wetherby, England), also known as Brazier's medium, was added to 100 mL SDW for every 100 mL of agar needed. This was then sterilised for 15 minutes at 121° C. Once sterilised the molten agar was cooled to 50° C. in a water-bath and 4 mL of egg-yolk emulsion (S2073; TCS Biosciences Ltd, Buckingham, United Kingdom) and 1 mL of lysed defibrinated horse blood (HB035; TCS Biosciences Ltd, Buckingham, United Kingdom) were also added for every 100 mL needed. Horse blood lysis is achieved by dilution to half concentration with SDW; when fully lysed the mixture will turn dark red in colour.
(§5) 18 mL agar was added to each universal and then poured into sterile Petri dishes. This step creates a 1/10 dilution resulting in agar plates of the required strength. Control plates for each set of strains were created by adding 18 mL of agar to 2 mL of SDW.
(§6) Suspensions of each bacterial species were prepared with a density equal to that of a 0.5 McFarland standard using a densitometer. All suspensions were made using sterile distilled water and fresh 18-20 hour cultures. As a 0.5 McFarland standard contains 1.5×10^8 CFU/mL and the multipoint inoculators applies 1 μL spots of liquid, each bacterial suspension was diluted 1/15 (20 μL suspension to 280 μL sterile distilled water).
(§7) Bacterial suspensions were prepared from fresh 18-24 hour cultures as previously described. 1 μL of each strain was inoculated onto all 100 agar plates containing a different chemical concentration and the 2 control plates. This was done using a multipoint inoculator which inoculates 20 strains per plate. All plates were incubated for 22 hours at 37° C. in aerobic conditions.
(§8) Each plate was examined for bacterial growth after 22 and 48 hours, with each being incubated in between examinations. A positive result was recorded as growth of ≧10 colonies. A negative result was recorded as growth of <10 colonies as this is equivalent to 99.9% inhibition. The lowest concentration of chemical that inhibited growth was recorded as the MIC. The results are recorded in Table IV below, where the numbers are quoted in mmol/L. […]

Klebsiella pneumoniae = assay: MIC agar dilution, micro-organism 2 (9528); settings: Klebsiella pneumoniae 9528; 48 hrs; read-out: MIC
Experimental: as §1, §2, §3, §4, §5, §6, §7
(§9) Each plate was examined for bacterial growth after 22 and 48 hours, with each being incubated in between examinations. A positive result was recorded as growth of ≧10 colonies. A negative result was recorded as growth of <10 colonies as this is equivalent to 99.9% inhibition. The lowest concentration of chemical that inhibited growth was recorded as the MIC. The results are recorded in Table IV below, where the numbers are quoted in mmol/L.
(§10) Further experiments have also been conducted to determine the MIC of a number of other compositions as follows. […]

Providencia rettgeri = assay: MIC agar dilution, micro-organism 3 (7475); settings: Providencia rettgeri 7475, read-out: MIC
Experimental: as §1, §2, §3, §4, §5, §6, §7, §8

Enterobacter cloacae = assay: MIC agar dilution, micro-organism 4 (11936); settings: Enterobacter cloacae 11936; 48 hrs; read-out: MIC
Experimental: as §1, §2, §3, §4, §5, §6, §7, §9, §10

Serratia marcescens = assay: MIC agar dilution, micro-organism 5 (10211); settings: Serratia marcescens 10211; 48 hrs; read-out: MIC
Experimental: as §1, §2, §3, §4, §5, §6, §7, §9, §10

Salmonella typhimurium = assay: MIC agar dilution, micro-organism 6 (74); settings: Salmonella enterica; Salmonella typhimurium 74; 48 hrs; read-out: MIC
Experimental: as §1, §2, §3, §4, §5, §6, §7, §9, §10

Pseudomonas aeruginosa = assay: MIC agar dilution, micro-organism 7 (10662); settings: Pseudomonas aeruginosa 10662; 48 hrs; read-out: MIC
Experimental: as §1, §2, §3, §4, §5, §6, §7, §9, §10

Yersinia enterocolitica = assay: MIC agar dilution, micro-organism 8 (11176); settings: Yersinia enterocolitica 11176; 48 hrs; read-out: MIC
Experimental: as §1, §2, §3, §4, §5, §6, §7, §9, §10

Burkholderia cepacia = assay: MIC agar dilution, micro-organism 9 (1222); settings: Burkholderia cepacia 1222; 48 hrs; read-out: MIC
Experimental: as §1, §2, §3, §4, §5, §6, §7, §9, §10

Acinetobacter baumannii = assay: MIC agar dilution, micro-organism 10 (19606); settings: Acinetobacter baumannii 19606; 48 hrs; read-out: MIC
Experimental: as §1, §2, §3, §4, §5, §6, §7, §9, §10

Steptococcus pyogenes = assay: MIC agar dilution, micro-organism 11 (8306); settings: Steptococcus pyogenes 8306, read-out: MIC
Experimental: as §1, §2, §3, §4, §5, §6, §7, §8

[1] = system: Staphylococcus aureus (MRSA); assay: MIC agar dilution, micro-organism 12 (11939); settings: Staphylococcus aureus, MRSA, Staphylococcus aureus (MRSA) 11939, read-out: MIC
Experimental: as §1, §2, §3, §4, §5, §6, §7, §8

Staphylococcus aureus = assay: MIC agar dilution, micro-organism 13 (6571); settings: Staphylococcus aureus, Staphylococcus aureus 6571, read-out: MIC
Experimental: as §1, §2, §3, §4, §5, §6, §7, §8

[2] = system: Staphylococcus epidermidis; assay: MIC agar dilution, micro-organism 14 (11047); settings: Staphylococcus epidermidis 11047, read-out: MIC
Experimental: as §1, §2, §3, §4, §5, §6, §7, §8

Listeria monocytogenes = assay: MIC agar dilution, micro-organism 15 (11994); settings: Listeria monocytogenes 11994, read-out: MIC
Experimental: as §1, §2, §3, §4, §5, §6, §7, §8

Enterococcus faecium = assay: MIC agar dilution, micro-organism 16 (7171); settings: Enterococcus faecium 7171, read-out: MIC
Experimental: as §1, §2, §3, §4, §5, §6, §7, §8

Enterococcus faecalis = assay: MIC agar dilution, micro-organism 17 (775); settings: Enterococcus faecalis 775, read-out: MIC
Experimental: as §1, §2, §3, §4, §5, §6, §7, §8

Bacillus subtilis = assay: MIC agar dilution, micro-organism 18 (9372); settings: Bacillus subtilis 9372, read-out: MIC
Experimental: as §1, §2, §3, §4, §5, §6, §7, §8

Candida albicans = assay: MIC agar dilution, micro-organism 19 (90028); settings: Candida albicans 90028, read-out: MIC
Experimental: as §1, §2, §3, §4, §5, §6, §7, §8

Candida glabrata = assay: MIC agar dilution, micro-organism 20 (3943); settings: Nakaseomyces glabratus, Candida glabrata 3943, read-out: MIC
Experimental: as §1, §2, §3, §4, §5, §6, §7, §8

[3] = system: Gram negative bacteria, Gram positive bacteria and pathogenic yeasts; assay: MIC agar dilution, summary statements over the micro-organisms tested (Tables I, IX); settings: over the micro-organisms tested or some of them; read-out: MIC
From the text: For a better understanding, the present invention will now be more particularly described, by way of non-limiting example only, as follows. The micro-organisms shown in Table I overleaf were acquired from the National Collection of Type Cultures (NCTC), Colindale, United Kingdom; the American Type Culture Collection (ATCC), Manassas, United States and the National Collection of Pathogenic Fungi (NCPF), Colindale, United Kingdom. They include Gram negative bacteria, Gram positive bacteria and pathogenic yeasts.
as §1, §2, §3, §4, §5, §6
as §7, with “conditions. […]” for “conditions.”

| Structure (SMILES) | MIC (Escherichia coli; 48 hrs) [µM] | MIC (Providencia rettgeri; 48 hrs) [µM] | MIC (Steptococcus pyogenes; 48 h, 48 hrs) [µM] | MIC ([1]; 48 h, 48 hrs) [µM] | MIC (Staphylococcus aureus; 48 h, 48 hrs) [µM] | MIC ([2]; 48 hrs) [µM] | MIC (Listeria monocytogenes; 48 hrs) [µM] | MIC (Enterococcus faecium; 48 hrs) [µM] | MIC (Enterococcus faecalis; 48 hrs) [µM] | MIC (Bacillus subtilis; 48 hrs) [µM] | MIC (Candida albicans; 48 hrs) [µM] | MIC (Candida glabrata; 48 h, 48 hrs) [µM] | MIC (Escherichia coli; 22 hrs) [µM] | MIC (Providencia rettgeri; 22 hrs) [µM] | MIC (Steptococcus pyogenes; 22 h, 22 hrs) [µM] | MIC ([1]; 22 h, 22 hrs) [µM] | MIC (Staphylococcus aureus; 22 h, 22 hrs) [µM] | MIC ([2]; 22 hrs) [µM] | MIC (Listeria monocytogenes; 22 hrs) [µM] | MIC (Enterococcus faecium; 22 hrs) [µM] | also measured |
| --- | --- | --- | --- | --- | --- | --- | --- | --- | --- | --- | --- | --- | --- | --- | --- | --- | --- | --- | --- | --- | --- |
| CCCCCCCCCCCCOCC(C)O (racemic) [PG1, 1-methyl-3-oxapentadecanol] | > 880 | 880 (≈ 215 µg/mL) | > 880 | 880 (≈ 215 µg/mL) | > 880 | > 880 | > 880 | > 880 | > 880 | > 880 | > 880 | > 880 |  |  |  |  |  |  |  |  | MIC (Klebsiella pneumoniae): > 880 µM; MIC (Enterobacter cloacae): > 880 µM; MIC (Serratia marcescens): > 880 µM; MIC (Salmonella typhimurium): > 880 µM; MIC (Pseudomonas aeruginosa): > 880 µM; MIC (Yersinia enterocolitica): > 880 µM; MIC (Burkholderia cepacia): > 880 µM; MIC (Acinetobacter baumannii): > 880 µM |
| CCCCCCCCCCO [D0, 1-Decanol, reference compound] | > 880 | > 880 | > 880 | > 880 | > 880 | > 880 | > 880 | > 880 | > 880 | > 880 | > 880 | > 880 | > 880 | > 880 | > 880 | > 880 | > 880 | > 880 | > 880 | > 880 | MIC (Enterococcus faecalis; 22 hrs): > 880 µM; MIC (Bacillus subtilis; 22 hrs): > 880 µM; MIC (Candida albicans; 22 hrs): > 880 µM; MIC (Candida glabrata; 22 h, 22 hrs): > 880 µM; MIC [3]: > 880 µM |
| CCCCCCCCCCOCCO [D1, Ethylene Glycol Monodecyl Ether, reference compound] | > 880 | > 880 | > 880 | > 880 | > 880 | > 880 | > 880 | > 880 | > 880 | > 880 | > 880 | > 880 | > 880 | > 880 | > 880 | > 880 | > 880 | > 880 | > 880 | > 880 | MIC (Enterococcus faecalis; 22 hrs): > 880 µM; MIC (Bacillus subtilis; 22 hrs): > 880 µM; MIC (Candida albicans; 22 hrs): > 880 µM; MIC (Candida glabrata; 22 h, 22 hrs): > 880 µM; MIC [3]: > 880 µM |
| CCCCCCCCCCCCCCOCCOCCOCCOCCO [M4, Tetraethylene Glycol Monotetradecyl Ether] | > 880 | > 880 | 27.5 (≈ 10.7 µg/mL) | 110 (≈ 43 µg/mL) | 55 (≈ 21.5 µg/mL) | 110 (≈ 43 µg/mL) | > 880 | > 880 | 220 (≈ 85.9 µg/mL) | 220 (≈ 85.9 µg/mL) | > 880 | > 880 | > 880 | > 880 | 27.5 (≈ 10.7 µg/mL) | 110 (≈ 43 µg/mL) | 55 (≈ 21.5 µg/mL) | 55 (≈ 21.5 µg/mL) | 440 (≈ 172 µg/mL) | > 880 | MIC (Enterococcus faecalis; 22 hrs): 220 µM (≈ 85.9 µg/mL); MIC (Bacillus subtilis; 22 hrs): 220 µM (≈ 85.9 µg/mL); MIC (Candida albicans; 22 hrs): > 880 µM; MIC (Candida glabrata; 22 h, 22 hrs): > 880 µM; MIC [3]: < 220 µM |
